Measured values reported in ChEMBL document CHEMBL5712891, “Inhibition of BET bromodomain-dependent XIAP and FLIP expression sensitizes KRAS-mutated NSCLC to pro-apoptotic agents” (Cell Death Dis, 2016).
The source made the active and inactive calls. No cut-off for these calls is given here.

Columns and labels:
DV-90 [1] = assay: Induction of cell cycle arrest in human DV-90 cells assessed as accumulation of cells at G0/G1 phase at 0.5 uM for 24 hrs by Click-iT EdU Alexa Fluor 647 flow cytometric assay kit analysis (reference value: 45%); type: functional
DV-90 [2] = assay: Induction of cell cycle arrest in human DV-90 cells assessed as accumulation of cells at G2/M phase at 0.5 uM for 24 hrs by Click-iT EdU Alexa Fluor 647 flow cytometric assay kit analysis (reference value: 25%); type: functional
NCI-H460 [3] = assay: Induction of cell cycle arrest in human NCI-H460 cells assessed as accumulation of cells at G0/G1 phase at 1 uM for 24 hrs by Click-iT EdU Alexa Fluor 647 flow cytometric assay kit analysis (reference value: 45%); type: functional
NCI-H460 [4] = assay: Induction of cell cycle arrest in human NCI-H460 cells assessed as accumulation of cells at G0/G1 phase at 0.5 uM for 24 hrs by Click-iT EdU Alexa Fluor 647 flow cytometric assay kit analysis (reference value: 45%); type: functional
NCI-H1373 [5] = assay: Induction of cell cycle arrest in human NCI-H1373 cells assessed as accumulation of cells at G0/G1 phase at 0.1 uM for 24 hrs by Click-iT EdU Alexa Fluor 647 flow cytometric assay kit analysis (reference value: 45%); type: functional
DV-90 [6] = assay: Induction of cell cycle arrest in human DV-90 cells assessed as accumulation of cells at G2/M phase at 0.25 uM for 24 hrs by Click-iT EdU Alexa Fluor 647 flow cytometric assay kit analysis (reference value: 25%); type: functional
NCI-H1373 [7] = assay: Induction of cell cycle arrest in human NCI-H1373 cells assessed as accumulation of cells at G0/G1 phase at 0.25 uM for 24 hrs by Click-iT EdU Alexa Fluor 647 flow cytometric assay kit analysis (reference value: 48%); type: functional
NCI-H1373 [8] = assay: Induction of TRAIL dependent apoptosis in human NCI-H1373 cells assessed as viable cells at 1 uM in presence of […] by annexin V-PI staining based flow cytometric analysis (reference value: 87.6%); type: functional; settings: read-out: Activity
SK-LU-1 = assay: Downregulation of FLIP mRNA expression level in human SK-LU-1 cells at 0.1 to 1 uM for 24 hrs by qRT-PCR analysis; type: functional, cell-based; settings: dose 0.1-1 µM
NCI-H1373 [9] = assay: Downregulation of c-MYC mRNA expression level in human NCI-H1373 cells at 0.1 to 1 uM for 24 hrs by qRT-PCR analysis; type: functional, cell-based; settings: dose 0.1-1 µM
DV-90 [10] = assay: Induction of apoptosis in human DV-90 cells assessed as necrotic cells at 2.5 uM for 24 hrs by annexin V-PI staining based flow cytometric analysis (reference value: 5.4%); type: functional
A549 [11] = assay: Induction of cell cycle arrest in human A549 cells assessed as accumulation of cells at S phase at 1 uM for 24 hrs by DAPI staining analysis (reference value: 36%); type: functional
NCI-H1792 = assay: Downregulation of c-MYC mRNA expression level in human NCI-H1792 cells at 0.1 to 1 uM for 24 hrs by qRT-PCR analysis; type: functional, cell-based; settings: dose 0.1-1 µM
DV-90 [12] = assay: Induction of cell cycle arrest in human DV-90 cells assessed as accumulation of cells at G0/G1 phase at 0.5 uM for 24 hrs by Click-iT EdU Alexa Fluor 647 flow cytometric assay kit analysis (reference value: 44%); type: functional
LCLC-97TM1 = assay: Downregulation of c-MYC mRNA expression level in human LCLC-97TM1 cells at 0.1 to 1 uM for 24 hrs by qRT-PCR analysis; type: functional, cell-based; settings: dose 0.1-1 µM
NCI-H1373 [13] = assay: Induction of cell cycle arrest in human NCI-H1373 cells assessed as accumulation of cells at G2/M phase at 0.25 uM for 24 hrs by Click-iT EdU Alexa Fluor 647 flow cytometric assay kit analysis (reference value: 13%); type: functional
NCI-H1373 [14] = assay: Downregulation of c-MYC level SCID mouse tumor tissue xenografted with human NCI-H1373 cells at 50 mg/kg, ip for 24 hrs by Western blot analysis; type: functional, organism-based; settings: Neoplasm
A549 [15] = assay: Induction of cell cycle arrest in human A549 cells assessed as accumulation of cells at S phase at 0.25 uM for 24 hrs by Click-iT EdU Alexa Fluor 647 flow cytometric assay kit analysis (reference value: 35%); type: functional
NCI-H1373 [16] = assay: Induction of TRAIL dependent apoptosis in human NCI-H1373 cells assessed as necrotic cells at 1 uM by annexin V-PI staining based flow cytometric analysis (reference value: 3.6%); type: functional
DV-90 [17] = assay: Induction of apoptosis in human DV-90 cells assessed as late apoptotic cells at 2.5 uM for 24 hrs by annexin V-PI staining based flow cytometric analysis (reference value: 11.4%); type: functional
A549 [18] = assay: Downregulation of XIAP mRNA expression level in human A549 cells at 0.1 to 1 uM for 24 hrs by qRT-PCR analysis; type: functional, cell-based; settings: dose 0.1-1 µM
NCI-H1373 [19] = assay: Induction of cell cycle arrest in human NCI-H1373 cells assessed as accumulation of cells at S phase at 0.25 uM for 24 hrs by Click-iT EdU Alexa Fluor 647 flow cytometric assay kit analysis (reference value: 45%); type: functional
DV-90 [20] = assay: Induction of cell cycle arrest in human DV-90 cells assessed as accumulation of cells at G0/G1 phase at 0.1 uM for 24 hrs by Click-iT EdU Alexa Fluor 647 flow cytometric assay kit analysis (reference value: 44%); type: functional
NCI-H1373 [21] = assay: Induction of apoptosis in human NCI-H1373 cells assessed as necrotic cells at 2.5 uM for 24 hrs by annexin V-PI staining based flow cytometric analysis (reference value: 5.5%); type: functional
NCI-H1373 [22] = assay: Downregulation of c-MYC protein level in human NCI-H1373 cells upto 24 hrs by Western blot analysis; type: functional, cell-based; settings: dose 100-5000 nM
DV-90 [23] = assay: Induction of cell cycle arrest in human DV-90 cells assessed as accumulation of cells at G0/G1 phase at 0.25 uM for 24 hrs by Click-iT EdU Alexa Fluor 647 flow cytometric assay kit analysis (reference value: 47%); type: functional
DV-90 [24] = assay: Induction of apoptosis in human DV-90 cells assessed as viable cells at 2.5 uM for 48 hrs by annexin V-PI staining based flow cytometric analysis (reference value: 81.9%); settings: DV-90, 48 h
NCI-H1373 [25] = assay: Induction of apoptosis in human NCI-H1373 cells assessed as viable cells at 2.5 uM for 24 hrs by annexin V-PI staining based flow cytometric analysis (reference value: 71.6%); type: functional; settings: read-out: Activity
DV-90 [26] = assay: Induction of cell cycle arrest in human DV-90 cells assessed as accumulation of cells at G2/M phase at 0.25 uM for 24 hrs by Click-iT EdU Alexa Fluor 647 flow cytometric assay kit analysis (reference value: 21%); type: functional
DV-90 [27] = assay: Induction of apoptosis in human DV-90 cells assessed as necrotic cells at 2.5 uM for 24 hrs by annexin V-PI staining based flow cytometric analysis (reference value: 8.4%); type: functional
NCI-H1373 [28] = assay: Induction of apoptosis in human NCI-H1373 cells assessed as late apoptotic cells at 2.5 uM for 24 hrs by annexin V-PI staining based flow cytometric analysis (reference value: 22.3%); type: functional

With `CCNC(=O)C[C@@H]1N=C(c2ccc(Cl)cc2)c2cc(OC)ccc2-n2c(C)nnc21` [MOLIBRESIB] the Activity (DV-90 [1]) was 47%, the Activity (DV-90 [2]) was 30% and the Activity (NCI-H460 [3]) was 52%. For the same compound, the Activity (NCI-H460 [4]) was 51%, the Activity (NCI-H1373 [5]) was 46% and the Activity (DV-90 [6]) was 31%. For the same compound, the Activity (NCI-H1373 [7]) was 65%.

`Cc1sc2c(c1C)C(c1ccc(Cl)cc1)=N[C@@H](CC(=O)OC(C)(C)C)c1nnc(C)n1-2` was tested, and the viability at 1 µM (NCI-H1373 [8]) was 17.8%, the Activity (SK-LU-1) was “Active” and the Activity (NCI-H1373 [9]) was “Active”. For the same compound, the Activity (DV-90 [10]) was 31%, the Activity (A549 [11]) was 32% and the Activity (NCI-H1792) was “Active”. For the same compound, the Activity (DV-90 [12]) was 51%, the Activity (LCLC-97TM1) was “Active” and the Activity (NCI-H1373 [13]) was 16%. The Activity (NCI-H1373 [14]) was “Active”, the Activity (A549 [15]) was 33% and the Activity (NCI-H1373 [16]) was 19.1%. The Activity (DV-90 [17]) was 16%, the Activity (A549 [18]) was “Active” and the Activity (NCI-H1373 [19]) was 21%. For the same compound, the Activity (DV-90 [20]) was 41%, the Activity (NCI-H1373 [21]) was 17.2% and the Activity (NCI-H1373 [22]) was “Dose-Dependent Effect”.

For `Cc1sc2c(c1C)C(c1ccc(Cl)cc1)=N[C@@H](CC(=O)Nc1ccc(O)cc1)c1nnc(C)n1-2` [BIRABRESIB], the Activity (DV-90 [23]) was 52%, the viability at 2.5 µM (DV-90 [24]) was 49.4% and the viability at 2.5 µM (NCI-H1373 [25]) was 56.2%. The Activity (DV-90 [26]) was 26%, the Activity (DV-90 [27]) was 33.7% and the Activity (NCI-H1373 [28]) was 20.3%.
